Where a SMILES comes first, the peptide text is derived from it. The star is where a group is joined. Boc = CC(C)(C)OC(=O)*
Tests used:
[1] = biological target: Carbonic anhydrase 2 (Homo sapiens) (UniProt P00918); test: Tested in vitro for activation of Human cloned isozyme carbonic anhydrase II (hCA II)
[2] = biological target: Carbonic anhydrase 1 (Homo sapiens) (UniProt P00915); test: Tested in vitro for activation of Human cloned isozyme carbonic anhydrase I (hCA I)
[3] = biological target: T1, Carbonic anhydrase 4 (Bos taurus) (UniProt Q95323); test: Tested in vitro for activation of carbonic anhydrase IV (bCA IV), purified from bovine lung microsomes; settings: Microsome
T1 sequence (whole entry): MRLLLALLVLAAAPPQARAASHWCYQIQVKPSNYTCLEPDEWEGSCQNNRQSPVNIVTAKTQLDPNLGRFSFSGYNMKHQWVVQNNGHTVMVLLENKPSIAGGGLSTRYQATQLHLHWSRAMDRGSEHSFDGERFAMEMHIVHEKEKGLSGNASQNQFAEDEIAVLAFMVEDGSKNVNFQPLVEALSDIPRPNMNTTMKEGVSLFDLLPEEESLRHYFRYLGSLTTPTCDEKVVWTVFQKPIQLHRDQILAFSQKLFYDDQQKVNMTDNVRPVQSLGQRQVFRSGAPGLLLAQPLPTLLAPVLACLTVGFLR

Chain of Carbonic anhydrase 1 (Homo sapiens) (P00915 2-261 limits assumed): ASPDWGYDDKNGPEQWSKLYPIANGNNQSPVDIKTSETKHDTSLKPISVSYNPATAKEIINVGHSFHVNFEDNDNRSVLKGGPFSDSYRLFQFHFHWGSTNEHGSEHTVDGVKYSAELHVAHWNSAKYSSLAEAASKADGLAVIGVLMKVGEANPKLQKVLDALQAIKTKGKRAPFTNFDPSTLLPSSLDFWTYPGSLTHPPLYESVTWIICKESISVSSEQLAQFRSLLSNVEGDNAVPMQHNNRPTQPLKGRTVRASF

| SMILES | KA [1] [µM] | KA [2] [µM] | KA [3] [µM] |
| --- | --- | --- | --- |
| N[C@@H](CC(=O)O)C(=O)N[C@@H](CC(=O)O)C(=O)N[C@@H](CC(=O)O)C(=O)O (H-Asp-Asp-Asp-OH) | 11 | 40 | 45 |
| C[C@H](N)C(=O)O | 150 | 54 | 66 |
| N[C@@H](CC(=O)O)C(=O)O | 130 | 48 | 60 |
| CC(C)(C)OC(=O)N[C@@H](CC(=O)O)C(=O)N[C@@H](CC(=O)O)C(=O)O (Boc-Asp-Asp-OH) | > 200 | > 200 | > 200 |
| CC(=O)N[C@@H](CC(=O)O)C(=O)N[C@@H](CC(=O)O)C(=O)O (Ac-Asp-Asp-OH) | > 200 | > 200 | > 200 |
| C[C@H](NC(=O)[C@H](CC(=O)O)NC(=O)OC(C)(C)C)C(=O)N[C@@H](CC(=O)O)C(=O)N[C@@H](CC(=O)O)C(=O)O (Boc-DADD-OH) | 131 | > 200 | > 200 |
| CC(=O)N[C@@H](CC(=O)O)C(=O)N[C@@H](C)C(=O)O (Ac-Asp-Ala-OH) | > 200 | > 200 | > 200 |
| C[C@H](N)C(=O)N[C@@H](C)C(=O)O (H-Ala-Ala-OH) | 110 | 50 | 62 |
| C[C@H](NC(=O)[C@@H](N)CC(=O)O)C(=O)O (H-Asp-Ala-OH) | 33 | 40 | 55 |
| CC(C)(C)OC(=O)N[C@@H](CC(=O)O)C(=O)N[C@@H](CC(=O)O)C(=O)N[C@@H](CC(=O)O)C(=O)O (Boc-Asp-Asp-Asp-OH) | 145 | > 200 | > 200 |
| N[C@@H](CC(=O)O)C(=O)N[C@@H](CC(=O)O)C(=O)N[C@@H](CC(=O)O)C(=O)N[C@@H](CC(=O)O)C(=O)O (H-DDDD-OH) | 0.1 | 35 | 43 |
| C[C@H](NC(=O)[C@@H](N)CC(=O)O)C(=O)N[C@@H](CC(=O)O)C(=O)N[C@@H](CC(=O)O)C(=O)O (H-DADD-OH) | 0.2 | 36 | 46 |
| CC(C)(C)OC(=O)N[C@@H](CC(=O)O)C(=O)N[C@@H](CC(=O)O)C(=O)N[C@@H](CC(=O)O)C(=O)N[C@@H](CC(=O)O)C(=O)O (Boc-DDDD-OH) | 124 | > 200 | > 200 |
| C[C@H](NC(=O)[C@@H](N)CC(=O)O)C(=O)N[C@@H](CC(=O)O)C(=O)O (H-Asp-Ala-Asp-OH) | 10 | 38 | 48 |
| CC(C)(C)OC(=O)N[C@@H](CC(=O)O)C(=O)O | > 200 | > 200 | > 200 |
| N[C@@H](CC(=O)O)C(=O)N[C@@H](CC(=O)O)C(=O)O (H-Asp-Asp-OH) | 21 | 39 | 51 |
